# In BindingDB's records for doi:10.1016/j.bmcl.2009.03.071 (Wyeth Research, 2009):
# Tests used:
# Test in all cases: Radioligand Binding Assay (Ki)
# Details in all cases: pH 7.4; 22 °C
# [1] = biological target: T1, 5-hydroxytryptamine receptor 1A (Homo sapiens, UniProt P08908)
# T1 sequence (P08908 whole entry): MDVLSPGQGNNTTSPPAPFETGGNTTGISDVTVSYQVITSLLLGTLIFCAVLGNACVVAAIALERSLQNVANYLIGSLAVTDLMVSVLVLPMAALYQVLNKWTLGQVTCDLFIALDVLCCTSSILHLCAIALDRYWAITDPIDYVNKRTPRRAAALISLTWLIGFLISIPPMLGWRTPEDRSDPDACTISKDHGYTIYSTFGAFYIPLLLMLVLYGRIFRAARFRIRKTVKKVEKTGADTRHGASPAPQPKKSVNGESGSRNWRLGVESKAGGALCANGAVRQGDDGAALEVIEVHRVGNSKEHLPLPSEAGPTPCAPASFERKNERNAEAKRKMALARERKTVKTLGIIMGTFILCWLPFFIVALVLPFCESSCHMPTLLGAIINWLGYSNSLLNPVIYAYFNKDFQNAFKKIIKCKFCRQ
# Protocol: (§1) Competition experiments were performed in the presence radioligand with membrane protein (obtained from cells expressing the receptor) and test compounds. The mixture was incubated at room temperature for 60 min and the reaction stopped by rapid filtration onto a 96-well GF/B filter using a Packard Filtermate harvester. Radioactivity retained on the filters was measured by liquid scintillation in a Packard TopCount. IC50 values for test compounds were determined from nonlinear regression analysis of data collected from ligand binding experiments. The inhibition constant (Ki) was calculated from IC50 value by the Cheng and Prusoff equation.
# [2] = biological target: 5-hydroxytryptamine receptor 1B (Homo sapiens, UniProt P28222)
# Chain of 5-hydroxytryptamine receptor 1B (P28222 whole entry): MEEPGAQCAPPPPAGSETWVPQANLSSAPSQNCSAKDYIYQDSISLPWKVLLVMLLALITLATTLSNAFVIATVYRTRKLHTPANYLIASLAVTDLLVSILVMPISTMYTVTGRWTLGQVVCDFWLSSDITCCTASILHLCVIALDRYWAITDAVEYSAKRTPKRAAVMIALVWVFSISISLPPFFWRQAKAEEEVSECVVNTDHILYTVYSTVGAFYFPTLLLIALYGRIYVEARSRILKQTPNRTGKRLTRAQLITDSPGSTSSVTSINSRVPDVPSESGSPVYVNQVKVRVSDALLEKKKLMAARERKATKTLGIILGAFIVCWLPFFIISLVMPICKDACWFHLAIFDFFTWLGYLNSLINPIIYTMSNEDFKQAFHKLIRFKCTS
# Protocol: as §1
# [3] = biological target: 5-hydroxytryptamine receptor 1D (Homo sapiens, UniProt P28221)
# Chain of 5-hydroxytryptamine receptor 1D (P28221 whole entry): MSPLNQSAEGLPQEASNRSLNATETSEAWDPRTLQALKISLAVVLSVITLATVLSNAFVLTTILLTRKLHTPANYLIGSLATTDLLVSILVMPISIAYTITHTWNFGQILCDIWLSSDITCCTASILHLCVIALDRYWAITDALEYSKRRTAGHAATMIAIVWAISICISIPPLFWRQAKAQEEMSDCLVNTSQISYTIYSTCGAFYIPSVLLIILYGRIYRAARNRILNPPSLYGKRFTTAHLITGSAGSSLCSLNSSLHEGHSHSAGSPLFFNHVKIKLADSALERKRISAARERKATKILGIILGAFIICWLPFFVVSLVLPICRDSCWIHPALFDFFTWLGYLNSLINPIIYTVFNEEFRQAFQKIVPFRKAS
# Protocol: as §1
# [4] = biological target: 5-hydroxytryptamine receptor 2B (Homo sapiens, UniProt P41595)
# Chain of 5-hydroxytryptamine receptor 2B (P41595 whole entry): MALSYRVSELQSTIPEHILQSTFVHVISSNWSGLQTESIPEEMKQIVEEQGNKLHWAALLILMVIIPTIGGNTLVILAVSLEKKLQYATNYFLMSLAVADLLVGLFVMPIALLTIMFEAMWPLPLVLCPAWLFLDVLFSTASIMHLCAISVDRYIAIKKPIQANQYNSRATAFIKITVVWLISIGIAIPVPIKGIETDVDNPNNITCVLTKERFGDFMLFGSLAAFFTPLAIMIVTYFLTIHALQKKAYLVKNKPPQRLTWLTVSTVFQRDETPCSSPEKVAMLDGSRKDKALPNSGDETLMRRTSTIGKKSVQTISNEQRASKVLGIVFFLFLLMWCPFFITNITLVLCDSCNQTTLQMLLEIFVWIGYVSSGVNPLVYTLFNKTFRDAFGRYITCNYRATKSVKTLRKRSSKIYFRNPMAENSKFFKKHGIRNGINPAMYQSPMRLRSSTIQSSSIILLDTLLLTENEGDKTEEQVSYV
# Protocol: as §1
# [5] = biological target: T2, 5-hydroxytryptamine receptor 2C (Homo sapiens, UniProt P28335)
# T2 sequence (P28335 whole entry): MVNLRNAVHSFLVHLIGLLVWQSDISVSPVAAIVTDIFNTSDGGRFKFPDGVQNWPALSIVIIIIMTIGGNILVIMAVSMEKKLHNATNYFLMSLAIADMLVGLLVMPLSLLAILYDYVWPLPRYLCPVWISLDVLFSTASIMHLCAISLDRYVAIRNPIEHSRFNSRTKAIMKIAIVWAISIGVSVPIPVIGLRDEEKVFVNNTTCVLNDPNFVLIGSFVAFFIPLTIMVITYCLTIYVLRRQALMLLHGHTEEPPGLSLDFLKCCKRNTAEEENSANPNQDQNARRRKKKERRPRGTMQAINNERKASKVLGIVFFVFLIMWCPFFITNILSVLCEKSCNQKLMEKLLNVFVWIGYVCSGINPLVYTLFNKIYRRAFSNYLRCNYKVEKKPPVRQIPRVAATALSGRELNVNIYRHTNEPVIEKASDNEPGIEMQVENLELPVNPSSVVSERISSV
# Protocol: as §1
# [6] = biological target: 5-hydroxytryptamine receptor 7 (Homo sapiens, UniProt P34969)
# Chain of 5-hydroxytryptamine receptor 7 (P34969 whole entry): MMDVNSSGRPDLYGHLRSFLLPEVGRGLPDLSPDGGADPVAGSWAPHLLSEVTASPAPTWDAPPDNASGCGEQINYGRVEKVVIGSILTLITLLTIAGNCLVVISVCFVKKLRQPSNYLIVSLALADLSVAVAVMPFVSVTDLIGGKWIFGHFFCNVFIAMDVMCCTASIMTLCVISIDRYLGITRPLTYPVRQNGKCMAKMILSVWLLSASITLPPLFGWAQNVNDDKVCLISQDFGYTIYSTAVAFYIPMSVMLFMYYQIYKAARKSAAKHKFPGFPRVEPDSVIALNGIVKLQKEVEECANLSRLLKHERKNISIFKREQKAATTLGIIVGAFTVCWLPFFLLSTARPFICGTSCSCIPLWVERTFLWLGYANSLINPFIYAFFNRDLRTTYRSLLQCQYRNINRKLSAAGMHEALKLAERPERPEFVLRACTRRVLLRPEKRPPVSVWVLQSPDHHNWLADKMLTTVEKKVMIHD
# Protocol: as §1
# [7] = biological target: D(2) dopamine receptor (Homo sapiens, UniProt P14416)
# Chain of D(2) dopamine receptor (P14416 whole entry): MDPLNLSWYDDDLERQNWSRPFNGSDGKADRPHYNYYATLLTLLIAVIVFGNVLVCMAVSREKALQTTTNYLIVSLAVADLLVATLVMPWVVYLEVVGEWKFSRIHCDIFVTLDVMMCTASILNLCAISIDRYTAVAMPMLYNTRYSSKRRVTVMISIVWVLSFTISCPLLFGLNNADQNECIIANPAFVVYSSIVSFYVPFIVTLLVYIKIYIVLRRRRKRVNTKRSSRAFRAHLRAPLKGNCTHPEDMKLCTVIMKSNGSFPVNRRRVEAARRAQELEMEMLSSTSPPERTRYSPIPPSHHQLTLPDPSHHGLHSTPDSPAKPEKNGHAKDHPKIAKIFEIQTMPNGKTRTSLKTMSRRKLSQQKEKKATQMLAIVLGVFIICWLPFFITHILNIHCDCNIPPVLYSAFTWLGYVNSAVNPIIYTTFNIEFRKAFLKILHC
# Protocol: as §1
compound,measurement,setting,value
NCCC(=O)Nc1ccc2cnn(S(=O)(=O)c3cccc4ccccc34)c2c1 [3-amino-N-[1-(naphthalene-1-sulfonyl)-1H-indazol-6-yl]propanamide],Ki,[1],6.4 µM
same,Ki,[2],> 2 µM
same,Ki,[3],> 2 µM
same,Ki,[4],0.155 µM
same,Ki,[5],> 2 µM
same,Ki,[6],5.1 µM
same,Ki,[7],> 2 µM
